Data taken from patent US11090410B2 (priority 2011, dated 2021).
“Also recorded” adds a separate entry of the source. Read-outs that look alike come from different tables or passages of the source.

System: acetylcholine receptor clustering in C2C12 mouse myoblast cell line
Assay type: cell-based
Conditions: for acetylcholine receptor clustering behavior: C2C12 cells on fibrin hydrogels, 5 days of treatment or beyond

beads covalently linked to agrin: polystyrene microparticles with agrin linked to the surface using EDAC/sulfo-NHS covalent crosslinking chemistry
acetylcholine receptor clustering behavior: induction of clustering behavior; also recorded: Clustering behavior was verified at areas of contact
acetylcholine receptor clustering behavior (listed as agrin-delivering microparticles): formation of AChR clusters
agrin delivery over longer time periods (e.g., 5 or more days): enabled agrin delivery over longer time periods
